Measured values taken from paper PMC11348465, “Pharmacochemical Study of Multitarget Amino Acids’ Hybrids: Design, Synthesis, In vitro, and In silico Studies” (Medicinal Chemistry (Shariqah (United Arab Emirates), 2024).
Like-named read-outs stand apart in the source and are kept apart here.

Key:
[1] = Inhibition of linoleic acid peroxidation (AAPH-induced)
Procedure: Our group evaluated the in vitro study as reported previously. Ten 16 mM sodium linoleate solution microliters were added to the UV cuvette containing 93 µL of a 0.05 M phosphate buffer, pH 7.4, and 10 µL of the tested compounds (final concentration 100 µM). The oxidation reaction started at 37 °C under air by adding 50 µL of the free radical initiator AAPH (40 mM). Oxidation was carried out and monitored at 234 nm. DMSO under the same conditions was used as a negative control. Trolox was used as the appropriate standard (positive control). The results are given in Table S1 in the supplementary material.
We used the water-soluble 2, 2’-azobis(2-amidinopropane) hydrochloride (AAPH) to generate in vitro peroxyl radicals through spontaneous thermal decomposition, which resembles cellular lipid peroxidation due to the activity of the undertaken radicals. The anti-lipid peroxidation activities were compared to a well-known antioxidant, i.e., Trolox (Table S1 in the supplementary material). […] In general, the anti-lipid peroxidation ranged from 8-99%. Except for acids 11, 12, 17, 19, 21, 22, 24, 25, and 28, which present high antioxidant activities (on the high % level), the other cinnamic acids present low or medium activity.

[2] = biological target: T1, soybean lipoxygenase (LOX-1) (Glycine max, UniProt P08170); assay: Soybean lipoxygenase inhibition study; type: biochemical; settings: for LOX inhibition (%): % inhibition at 100 µM; for inhibition at 100 µM: read-out: LOX inhibition (%)
T1 construct: purchased Sigma Chemical, Co. (St Louis, MO, USA)
T1 sequence (P08170 1-839): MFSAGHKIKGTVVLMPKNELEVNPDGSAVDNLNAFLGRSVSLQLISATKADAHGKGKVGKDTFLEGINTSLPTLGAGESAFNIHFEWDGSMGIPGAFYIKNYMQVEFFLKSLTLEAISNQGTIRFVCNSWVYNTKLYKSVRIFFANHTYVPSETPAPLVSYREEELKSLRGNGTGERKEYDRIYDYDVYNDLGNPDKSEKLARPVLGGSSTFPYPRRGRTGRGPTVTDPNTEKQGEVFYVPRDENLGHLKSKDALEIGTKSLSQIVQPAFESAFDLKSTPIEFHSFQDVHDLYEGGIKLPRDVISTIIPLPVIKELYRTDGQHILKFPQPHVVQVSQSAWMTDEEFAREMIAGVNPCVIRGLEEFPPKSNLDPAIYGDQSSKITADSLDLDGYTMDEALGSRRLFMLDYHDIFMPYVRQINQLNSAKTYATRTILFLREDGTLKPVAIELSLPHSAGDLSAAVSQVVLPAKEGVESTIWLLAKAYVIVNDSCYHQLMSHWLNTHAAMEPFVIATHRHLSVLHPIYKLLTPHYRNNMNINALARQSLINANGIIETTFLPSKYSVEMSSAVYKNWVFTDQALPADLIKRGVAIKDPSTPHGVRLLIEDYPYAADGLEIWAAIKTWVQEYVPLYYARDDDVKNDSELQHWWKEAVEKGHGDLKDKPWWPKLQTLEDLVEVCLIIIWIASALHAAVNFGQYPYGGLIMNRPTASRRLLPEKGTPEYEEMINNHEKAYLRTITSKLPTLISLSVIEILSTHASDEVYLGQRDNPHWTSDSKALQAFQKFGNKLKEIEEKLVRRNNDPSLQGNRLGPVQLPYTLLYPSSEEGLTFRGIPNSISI
Procedure: Our group evaluated an in vitro study as reported previously. The tested hybrids were incubated at room temperature with sodium linoleate (100 µM) and 200 µL of enzyme solution (1/9 X 10^-4 w/v in saline). […] Different concentrations were used for the determination of IC50. A blank determination was used as a negative control.
Due to the limited work on sufficiently purified human ALOX-5 isoenzyme, most of the published research was performed on the soybean homolog. […] This study used the soybean isoenzyme LOX-1, which exerts maximal activity at pH 9.0 [72].

ovine COX-2 = biological target: T2, ovine COX-2 (Ovis aries, UniProt P79208); assay: Cyclooxygenase-2 inhibition study; type: biochemical; settings: for COX-2 inhibition (%): % inhibition at 100 µM
T2 construct: purchased Cayman (USA)
T2 sequence (P79208 17-603): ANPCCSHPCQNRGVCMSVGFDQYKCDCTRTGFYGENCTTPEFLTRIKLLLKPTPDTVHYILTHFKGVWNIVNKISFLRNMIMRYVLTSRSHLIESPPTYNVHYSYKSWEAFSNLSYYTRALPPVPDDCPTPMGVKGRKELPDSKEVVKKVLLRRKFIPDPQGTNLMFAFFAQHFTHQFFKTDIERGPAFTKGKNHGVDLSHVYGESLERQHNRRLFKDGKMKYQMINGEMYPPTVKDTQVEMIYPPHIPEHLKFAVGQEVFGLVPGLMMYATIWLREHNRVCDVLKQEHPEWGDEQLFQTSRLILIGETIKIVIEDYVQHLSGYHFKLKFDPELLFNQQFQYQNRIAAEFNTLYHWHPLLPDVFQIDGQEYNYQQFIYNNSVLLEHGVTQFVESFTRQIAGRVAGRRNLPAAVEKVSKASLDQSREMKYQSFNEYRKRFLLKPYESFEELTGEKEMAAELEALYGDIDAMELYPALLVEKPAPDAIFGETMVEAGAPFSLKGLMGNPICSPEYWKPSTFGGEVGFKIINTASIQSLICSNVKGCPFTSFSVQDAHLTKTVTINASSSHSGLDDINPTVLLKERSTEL
Procedure: The in vitro study of cyclooxygenase (COX) activity was determined by using arachidonic acid (AA) as the substrate and N,N,N’,N’-tetramethylphenylenediamine (TMPD) as the co-substrate. […] The absorption due to the spontaneous oxidation of TMPD was subtracted from the initial rate of oxidation observed in the presence of AA. […] A blank determination was used first to serve as a negative control. Indomethacin was used as a reference COX-2 inhibitor (positive control).
The role of COX-2 in neurodegenerative diseases has been reported, and COX-2 inhibition is considered of high importance as a therapeutic tool. The designed derivatives were tested for their COX-2 inhibition activity on the ovine COX-2 enzyme. […] Indomethacin was used as a reference compound.

[3] = cited from earlier work
albumin = assay: Albumin denaturation studies
Procedure: The synthesized compounds were evaluated for the inhibition of albumin denaturation. Test tubes containing 1 mL of albumin solution (1% w/v in phosphate buffer pH=7.4), buffer, and 20 μL of the tested compounds dissolved in DMSO are incubated at 37°C for 15 minutes (final concentration 100 µM). The incubation follows at 60°C for another 15 minutes to induce albumin denaturation. The samples are cooled to room temperature. Their absorbance was measured at 660 nm. DMSO was used as a blank solution and acetylsalicylic acid as a reference compound. The results are given in Table S1 in the supplementary material.
Protein denaturation has correlated well with the inflammatory response, leading to various inflammatory diseases. It is known that tissue injury during life might refer to the denaturation of cells' protein constituents or intercellular substances. […] Many anti-inflammatory drugs can inhibit the heat-coagulation of serum albumin [78]. Thus, the inhibition of albumin heat-coagulation activity of the designed molecules was examined in vitro [60] as a measure of their anti-inflammatory activity. The experimental results were compared to the standard drug, acetylsalicylic acid. […] The results are given in Table S1 in the supplementary material.

[4] = read-out: LOX inhibition (IC50)
[5] = read-out: COX-2 inhibition (IC50)

| Structure (SMILES) | IC50 [2, 4] | AAPH inhibition (%, at 100 µM) [1] | further results |
| --- | --- | --- | --- |
| CCOC(=O)CNC(=O)/C=C/c1ccc(O)c(OC)c1 [Compound 24a] | 100 µM | 82% | – |
| COC(=O)CCCNC(=O)/C=C/c1ccc(O)c(OC)c1 [Compound 24b] | 100 µM | 34% | – |
| COC(=O)CC[C@H](NC(=O)/C=C/c1ccc(O)c(OC)c1)C(=O)OC [Compound 24c] | 75 µM | 12% | COX-2 inhibition (%) (ovine COX-2): 9% |
| O=C(O)/C=C/c1ccc(O)cc1 [Compound 25, p-coumaric acid] | – | 76% | IC50 (ovine COX-2; [5]): 62 µM; IC50 [2]: 10 µM |
| COC(=O)CCCNC(=O)/C=C/c1ccc(O)cc1 [Compound 25b] | – | 66% | LOX inhibition (%) [2]: 10% |
| COC(=O)CC[C@H](NC(=O)/C=C/c1ccc(O)cc1)C(=O)OC [Compound 25c] | 63 µM | 78% | – |
| N#Cc1ccc(/C=C/C(=O)O)cc1 [Compound 26] | – | – | AAPH inhibition (%, at 100 µM) [3]: 20%; IC50 (ovine COX-2): 65 µM; inhibition at 100 µM [2]: 27% |
| COC(=O)CC[C@H](NC(=O)/C=C/c1ccc(F)cc1)C(=O)OC [Compound 27c] | – | 10% | IC50 (ovine COX-2; [5]): 72.5 µM; LOX inhibition (%) [2]: 8% |
| COC(=O)CCCNC(=O)/C=C/c1ccc(O)c(O)c1 [Compound 28b] | – | 58% | Albumin denaturation (%, at 100 µM) (albumin): 44%; IC50 (ovine COX-2; [5]): 100 µM |
| CC1(C)Oc2ccc(/C=C/C(=O)O)cc2O1 [Compound 29, (E)-3-(2,2-dimethylbenzo[d][1, 3]dioxol-5-yl)acrylic acid] | – | 56% | inhibition at 100 µM [2]: 46% |
| CCOC(=O)CNC(=O)/C=C/c1ccc2c(c1)OC(C)(C)O2 [Compound 29a] | – | 80% | Albumin denaturation (%, at 100 µM) (albumin): 25%; COX-2 inhibition (%) (ovine COX-2): 38% |
| COC(=O)CC[C@H](NC(=O)/C=C/c1ccc2c(c1)OC(C)(C)O2)C(=O)OC [Compound 29c] | – | 27% | Albumin denaturation (%, at 100 µM) (albumin): 75% |
| CC(=O)Oc1ccc(/C=C/C(=O)O)cc1 [Compound 30, (E)-3-(4-acetoxyphenyl) acrylic acid] | – | 33% | inhibition at 100 µM [2]: 23% |

More lines, main results first:

| IC50 [2, 4] | Structure (SMILES) | AAPH inhibition (%, at 100 µM) [1] | further results |
| --- | --- | --- | --- |
| 70 µM | CCOC(=O)CNC(=O)/C=C/c1ccc(O)c(O)c1 [Compound 28a] | 47% | inhibition at 100 µM (ovine COX-2): 17% |
| 8.5 µM | COC(=O)CCC(NC(=O)C=Cc1ccc(O)c(O)c1)C(=O)OC (stereo not drawn) [Compound 28c] | 87% | Albumin denaturation (%, at 100 µM) (albumin): 31%; inhibition at 100 µM (ovine COX-2): 19% |
| 100 µM | COC(=O)CC[C@H](NC(=O)/C=C/c1ccc(OC(C)=O)cc1)C(=O)OC [Compound 30c] | 16% | COX-2 inhibition (%) (ovine COX-2): 6% |
